Results taken from US9399032B2, “Methods and compositions for treating degenerative and ischemic disorders” (The General Hospital Corporation, priority 2009, dated 2016).
Structures can show the parent of a compound that is named as a salt.

tested on: MCH58 fibroblasts; test: Glucose versus galactose cell growth screen (metabolic state-dependent lethality); conditions: not given

Row | Compound | Sglu/gal (log10 fold change) Score
1 | [O-][n+]1ccccc1[S-].[O-][n+]1ccccc1[S-].[Zn+2] [pyrithione zinc] | −0.25
2 | C[CH2][Hg][S]c1ccccc1C(=O)[O-].[Na+] [thimerosal] | −0.22

same assay, conditions: approximately 10 μM compound, 72 hours; log10 fold change of normalized cell number in glucose versus galactose

Row | Compound | Sglu/gal (log10 fold change) Score
3 | CCN(CC)CCOc1ccc(C(=C(Cl)c2ccccc2)c2ccccc2)cc1 [Clomiphene citrate] | 0.21
4 | CN1CCC[C@@H]1CCO[C@](C)(c1ccccc1)c1ccc(Cl)cc1 [Clemastine fumarate] | 0.19
5 | CC1(C)C(=O)C=C[C@]2(C)[C@H]3CC[C@@]4(C)[C@H](c5ccoc5)OC(=O)[C@H]5O[C@]54[C@]3(C)C=C[C@@H]12 [7-desacetoxy-6,7-dehydrogedunin] | −0.22
6 | CC(=O)O[C@H]1CC[C@@]2(C)[C@H](CC[C@@H]3[C@@H]2CC[C@]2(C)[C@@H](C4=CC(=O)OC4)[C@@H](OC(C)=O)C[C@]32O)C1 [gitoxigenin diacetate] | −0.21
7 | Clofilium tosylate | 0.42
8 | COc1c(-c2coc3cc4c(cc3c2=O)CC(O)C(C)(C)O4)ccc2c1C=CC(C)(C)O2 (stereo not shown) [Mundulone] | 0.50
9 | CC[n+]1c(-c2ccccc2)c2cc(N)ccc2c2ccc(N)cc21 [homidium bromide] | −0.54
10 | CCCCC(CC)CNC(=N)NC(=N)NCCCCCCNC(=N)NC(=N)NCC(CC)CCCC (stereo not shown) [Alexidine dihydrochloride] | 0.44
11 | C[C@]12CC[C@H](O)C[C@H]1CC[C@@H]1[C@@H]2[C@H](O)C[C@]2(C)[C@@H](C3=CC(=O)OC3)CC[C@]12O [sarmentogenin] | −0.21
12 | COc1cc2c(cc1OC)[C@@H]1C(=O)c3ccc(O)c(CC=C(C)C)c3O[C@@H]1CO2 [Rotenonic acid] | 0.33
13 | COc1cc2c(cc1OC)[C@@H]1C(=O)c3c(O)cc4c(c3O[C@@H]1CO2)C=CC(C)(C)O4 [Alpha-toxicarol] | 0.91
14 | CN(C/C=C/c1ccccc1)Cc1cccc2ccccc12 [Naftifine hydrochloride] | 0.19
15 | CC[C@]1(O)C[C@@H]2CN(CCc3c([nH]c4ccccc34)[C@@](C(=O)OC)(c3cc4c(cc3OC)N(C)[C@H]3[C@@](O)(C(=O)OC)[C@H](OC(C)=O)[C@]5(CC)C=CCN6CC[C@]43[C@@H]65)C2)C1 [vinblastine sulfate] | −0.27
16 | COC(=O)[C@]1(C)CC[C@]2(C)CC[C@]3(C)C4=CCc5c(cc(O)c(O)c5C)[C@]4(C)CC[C@@]3(C)[C@@H]2C1 [pristimerol] | −0.45
17 | COc1cc([C@@H]2c3cc4c(cc3[C@H](O)[C@H]3COC(=O)[C@H]23)OCO4)cc(OC)c1OC [Podophyllotoxin] | −0.27
18 | C[C@@]12C(=O)OC(=O)[C@]1(C)[C@H]1CC[C@@H]2O1 [cantharidin] | −0.33
19 | CC(=O)O[C@H]1C(=O)[C@@]2(C)[C@H]([C@H](OC(=O)c3ccccc3)[C@]3(O)C[C@H](OC(=O)[C@H](O)[C@@H](NC(=O)c4ccccc4)c4ccccc4)C(C)=C1C3(C)C)[C@]1(OC(C)=O)CO[C@@H]1C[C@@H]2O [paclitaxel] | −0.22
20 | C=C1C(=O)O[C@H]2C[C@@H]1C(OC(C)=O)C/C(C)=C/CC/C(C)=C/CC[C@@]2(C)O (stereo partly shown) [crassin acetate] | −0.35
21 | Cc1c(O)c(O)cc2c1CC=C1[C@@]2(C)CC[C@@]2(C)[C@@H]3C[C@](C)(C(=O)O)CC[C@]3(C)CC[C@]12C [dihydrocelastrol] | −0.31
22 | Oc1c(Cl)cc(Cl)c2cccnc12 [chloroxine] | −0.23

Row | Compound | Sglu/gal (log10 fold change) Score
23 | Clc1ccc(C(Cn2ccnc2)OCc2csc3c(Cl)cccc23)c(Cl)c1 (stereo not shown) [Sertaconazole nitrate] | 0.19
24 | Cc1cc(N)c2ccccc2[n+]1CCCCCCCCCC[n+]1c(C)cc(N)c2ccccc21 [Dequalinium dichloride] | 0.42
25 | Nc1c2ccccc2nc2ccccc12 [aminacrine] | −0.29
26 | CC(C)c1c(O)ccc2c1CCC1C(C)(C(=O)O)CCCC21C (stereo not shown) [Totarol-19-carboxylic acid] | 0.80
27 | CCN(CC)CCCC(C)Nc1c2ccc(Cl)cc2nc2ccc(OC)cc12 (stereo not shown) [quinacrine hydrochloride] | −0.30
28 | CN(C)CCC=C1c2ccccc2C=Cc2ccccc21 [Cyclobenzaprine hydrochloride] | 0.13
29 | C#C[C@]1(OC(C)=O)CC[C@H]2[C@@H]3CCC4=C[C@@H](OC(C)=O)CC[C@@H]4[C@H]3CC[C@@]21C [Ethynodiol diacetate] | 0.15
30 | COc1cc2c(cc1OC)C1C(=O)c3c(cc4c(c3O)C=CC(C)(C)O4)OC1CO2 (stereo not drawn) [Beta-toxicarol] | 0.82
31 | COc1cc2c(c(OC)c1OC)-c1ccc(OC)c(=O)cc1[C@@H](NC(C)=O)CC2 [Colchicine] | −0.26
32 | CC[C@@]1(O)C[C@H](O[C@H]2C[C@H](N(C)C)[C@H](O)[C@H](C)O2)c2c(cc3c(c2O)C(=O)c2c(O)cccc2C3=O)[C@H]1C(=O)OC [aklavine hydrochloride] | −0.33
33 | O=C1O[C@H]([C@@H](O)CO)C(O)=C1O [Ascorbic acid] | 0.15
34 | Cc1cc(C(C)(C)CC(C)(C)C)ccc1OCCOCC[N+](C)(C)Cc1ccccc1.[Cl-] [Methyl benzethonium chloride] | 0.80
35 | CC[C@H]1CN2CCc3cc(OC)c(OC)cc3[C@@H]2C[C@@H]1C[C@H]1NCCc2cc(OC)c(OC)cc21 [emetine] | −0.22
36 | CCCCCCCCCCCCCCCC[N+](C)(C)CCN(Cc1ccc(OC)cc1)c1ncccn1 [Thonzonium bromide] | 0.38
37 | O=c1[nH]c(=O)n([C@H]2C[C@H](O)[C@@H](CO)O2)cc1F [floxuridine] | −0.28
38 | CCN[C@H]1C[C@H](C)S(=O)(=O)c2sc(S(N)(=O)=O)cc21 [Dorzolamide hydrochloride] | 0.17
39 | CC(C)n1c(/C=C/C(O)CC(O)CC(=O)O)c(-c2ccc(F)cc2)c2ccccc21 (stereo not shown) [Fluvastatin sodium salt] | 0.16
40 | COc1ccc(C[C@H]2NC[C@H](O)[C@H]2OC(C)=O)cc1 [anisomycin] | −0.24
41 | O=c1[nH]c(=O)n([C@H]2C[C@H](O)[C@@H](CO)O2)cc1C(F)(F)F [Trifluridine] | −0.26
42 | CO[C@H]1C=C[C@@]23c4cc5c(cc4CN(C[C@@H]2O)[C@H]3C1)OCO5 [crinamine] | −0.22

Row | Compound | Sglu/gal (log10 fold change) Score
43 | CC1=C(O)C(=O)C=C2C1=CC=C1[C@@]2(C)CC[C@@]2(C)[C@@H]3C[C@](C)(C(=O)O)CC[C@]3(C)CC[C@]12C [celastrol] | −0.29
44 | C=C1C(=O)O[C@@H]2C[C@@]3(C)CCC[C@H](C)C3=C[C@H]12 [helenine] | −0.22
45 | CCOC(=O)C1=C[C@]2(CC)CCCN3CCc4c(n1c1ccccc41)[C@@H]32 [Vinpocetine] | 0.23
46 | CC(=O)O[C@@H]1C[C@@]2(C)[C@H](c3ccoc3)C[C@H]3O[C@]32[C@]2(C)C(=O)C(O)=C3C(C)(C)C(=O)C=C[C@]3(C)[C@@H]12 [anthothecol] | −0.30
47 | CCCCCCc1ccc(O)cc1O.Nc1c2ccccc2nc2ccccc12 [acrisorcin] | −0.36
48 | O=C(Nc1ccc([N+](=O)[O-])cc1Cl)c1cc(Cl)ccc1O [Niclosamide] | 0.15
49 | C[C@@H]1CC[C@H]2[C@@H](C)C(=O)O[C@@H]3O[C@@]4(C)CC[C@@H]1[C@]32OO4 [Artemisinin] | 0.17
50 | OC(c1cc(C(F)(F)F)nc2c(C(F)(F)F)cccc12)C1CCCCN1 (stereo not shown) [Mefloquine] | 0.20
51 | C[n+]1c2cc(N)ccc2cc2ccc(N)cc21.[Cl-] [acriflavinium hydrochloride] | −0.29
52 | Nonoxynol-9 | 0.46
53 | CO[C@H]1[C@H](O)[C@H](O[C@H]2CC[C@@]3(C)[C@H](CC[C@@H]4[C@@H]3CC[C@]3(C)[C@@H](C5=CC(=O)OC5)CC[C@]43O)C2)O[C@@H](C)[C@@H]1O [neriifolin] | −0.21
54 | CN[C@H]1CC[C@@H](c2ccc(Cl)c(Cl)c2)c2ccccc21 [Sertraline hydrochloride] | 0.15
55 | CC[C@@]1(O)C(=O)OCc2c1cc1n(c2=O)Cc2cc3ccccc3nc2-1 [camptothecin] | −0.26
56 | COc1cc2c(cc1OC)[C@@H]1C(=O)c3ccc(OC)c(CC=C(C)C)c3O[C@@H]1CO2 [Rotenonic acid, methyl ether] | 0.34
57 | [H]/N=C(\N/C(=N/[H])NCCCCCCNC(=N)NC(=N)Nc1ccc(Cl)cc1)Nc1ccc(Cl)cc1 [Chlorhexidine] | 0.16
58 | COc1cc2c(cc1OC)[C@@H]1C(=O)c3ccc4oc(C(C)C)cc4c3O[C@@H]1CO2 [Isorotenone] | 0.71
59 | COc1cc2c(cc1OC)[C@@H]1C(=O)c3ccc4c(c3O[C@@H]1CO2)CC(C(C)C)O4 (stereo partly drawn) [Beta-dihydrorotenone] | 0.85
60 | Cl.Cl.O=C1c2c(O)ccc(O)c2C(=O)c2c(NCCNCCO)ccc(NCCNCCO)c21 [mitoxanthrone hydrochloride] | −0.73
61 | CO[C@@H]1C[C@@H](C[C@H]2CC[C@H](C)[C@H]([C@@H](C)C(=O)O)O2)O[C@]2(O[C@](C)([C@H]3CC[C@@](C)([C@@H]4O[C@@H]([C@H]5O[C@@](O)(CO)[C@H](C)C[C@@H]5C)C[C@@H]4C)O3)C[C@H]2C)[C@@H]1C [nigericin sodium] | −0.31

same assay, conditions: approximately 10 μM compound, 72 hours; log10 fold change of normalized cell number in glucose versus galactose; listed as Methylbenzethonium chloride

Row | Compound | Sglu/gal (log10 fold change) Score
62 | Cc1cc(C(C)(C)CC(C)(C)C)ccc1OCCOCC[N+](C)(C)Cc1ccccc1.[Cl-] [Methyl benzethonium chloride] | 0.46

same assay, conditions: galactose versus glucose

Row | Compound | inhibitory activity against cell growth in galactose (SAR analysis)
63 | CNCCC=C1c2ccccc2CCc2ccccc21 [nortriptyline] | moderate inhibitory activity
64 | CN1CCN(C(c2ccccc2)c2ccc(Cl)cc2)CC1 (stereo not shown) [chlorcyclizine] | more potent than that of homopiperazine analogue
